Assay results published in patent US10906915B2, “Substituted pyrazoloazepin-4-ones and their use as phosphodiesterase inhibitors” (LEO Pharma A/S, priority 2016, dated 2021).

Target: human PDE4D catalytic domain (UniProt no. Q08499) (Homo sapiens (Human), UniProt Q08499)
Experiment: PDE4 assay (TR-FRET, FAM-cAMP cleavage)
Format: biochemical
Conditions: human PDE4D catalytic domain; molar concentration giving 50% inhibition of substrate cleavage; read-out: PDE4 IC50 range
In short: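 Read-out is time-resolved FRET from Tb donor to FAM-AMP captured on trivalent-metal nanoparticles added to stop the reaction. Substrate was a mix of plain and FAM-labelled cAMP, cleaved by human PDE4D catalytic domain ([…]) with titrated compound; IC50 ranges (nM) versus controls.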

Chain of human PDE4D catalytic domain (Q08499 380-740 limits assumed): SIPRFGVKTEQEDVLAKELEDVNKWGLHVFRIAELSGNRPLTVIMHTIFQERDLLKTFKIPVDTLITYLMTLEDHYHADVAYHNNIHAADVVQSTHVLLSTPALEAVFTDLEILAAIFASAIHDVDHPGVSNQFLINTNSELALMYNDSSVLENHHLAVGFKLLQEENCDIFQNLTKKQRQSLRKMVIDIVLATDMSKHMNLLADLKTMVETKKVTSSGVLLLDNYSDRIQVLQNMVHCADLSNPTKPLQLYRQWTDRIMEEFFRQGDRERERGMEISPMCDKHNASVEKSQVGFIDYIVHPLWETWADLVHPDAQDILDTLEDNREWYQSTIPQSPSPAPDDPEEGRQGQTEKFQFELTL

Row | Structure (SMILES) | IC50 [nM]
1 | CCc1nn(C[C@@H](C)COC(=O)c2ccc(C(F)(F)F)cc2Cl)c2c1C(=O)NCC1(CCOCC1)C2 [Example 237, [(2R)-3-(3-ethyl-4-oxo-spiro[6,8-dihydro-5H-pyrazolo[4,3-c]azepine-7,4′-tetrahydropyran]-1-yl)-2-methyl-propyl] 2-chloro-4-(trifluoromethyl)benzoate] | < 100
2 | CCc1nn(CCCOC(=O)c2ccc(Cl)c(F)c2)c2c1C(=O)NCC1(CCOCC1)C2 [Example 81, 3-(3-ethyl-4-oxo-spiro[6,8-dihydro-5H-pyrazolo[4,3-c]azepine-7,4′-tetrahydropyran]-1-yl)propyl 4-chloro-3-fluoro-benzoate] | < 100
3 | CCc1nn(CCCOC(=O)c2ccc(F)c(Cl)c2)c2c1C(=O)NCC1(CCOCC1)C2 [Example 84, 3-(3-ethyl-4-oxo-spiro[6,8-dihydro-5H-pyrazolo[4,3-c]azepine-7,4′-tetrahydropyran]-1-yl)propyl 3-chloro-4-fluoro-benzoate] | < 100
4 | CCc1nn(C[C@@H](C)COC(=O)c2ccc(C(=O)NC)cc2)c2c1C(=O)NCC1(CCOCC1)C2 [Example 253, [(2R)-3-(3-ethyl-4-oxo-spiro[6,8-dihydro-5H-pyrazolo[4,3-c]azepine-7,4′-tetrahydropyran]-1-yl)-2-methyl-propyl] 4-(methylcarbamoyl)benzoate] | < 100
5 | CCc1nn(CCCOC(=O)c2cccc(Cl)c2F)c2c1C(=O)NCC1(CCOCC1)C2 [Example 78, 3-(3-ethyl-4-oxo-spiro[6,8-dihydro-5H-pyrazolo[4,3-c]azepine-7,4′-tetrahydropyran]-1-yl)propyl 3-chloro-2-fluoro-benzoate] | < 100
6 | CCc1nn(C[C@@H](C)COC(=O)c2ccc(C(=O)N3CCNCC3)cc2)c2c1C(=O)NCC1(CCOCC1)C2 [Example 259, [(2R)-3-(3-ethyl-4-oxo-spiro[6,8-dihydro-5H-pyrazolo[4,3-c]azepine-7,4′-tetrahydropyran]-1-yl)-2-methyl-propyl] 4-(piperazine-1-carbonyl)benzoate] | < 100
7 | CCc1nn(CCCOC(=O)c2cccc(C(=O)N3CCCCC3)c2)c2c1C(=O)NCC1(CCOCC1)C2 [Example 156, 3-(3-ethyl-4-oxo-spiro[6,8-dihydro-5H-pyrazolo[4,3-c]azepine-7,4′-tetrahydropyran]-1-yl)propyl 3-(piperidine-1-carbonyl)benzoate] | < 100
8 | CCc1nn(CCCOC(=O)c2cccc(C(F)(F)F)c2)c2c1C(=O)NCC1(CCOCC1)C2 [Example 96, 3-(3-ethyl-4-oxo-spiro[6,8-dihydro-5H-pyrazolo[4,3-c]azepine-7,4′-tetrahydropyran]-1-yl)propyl 3-(trifluoromethyl)benzoate] | < 100
9 | CCc1nn(CCCOC(=O)c2cccc(C(=O)N3CCN(C(C)=O)CC3)c2)c2c1C(=O)NCC1(CCOCC1)C2 [Example 159, 3-(3-ethyl-4-oxo-spiro[6,8-dihydro-5H-pyrazolo[4,3-c]azepine-7,4′-tetrahydropyran]-1-yl)propyl 3-(4-acetylpiperazine-1-carbonyl)benzoate] | < 100
10 | CCc1nn(CCCOC(=O)c2cccc(F)c2OC)c2c1C(=O)NCC1(CCOCC1)C2 [Example 70, 3-(3-ethyl-4-oxo-spiro[6,8-dihydro-5H-pyrazolo[4,3-c]azepine-7,4′-tetrahydropyran]-1-yl)propyl 3-fluoro-2-methoxy-benzoate] | < 100
11 | CCc1nn(CCCOC(=O)c2c(F)cccc2Cl)c2c1C(=O)NCC1(CCOCC1)C2 [Example 80, 3-(3-ethyl-4-oxo-spiro[6,8-dihydro-5H-pyrazolo[4,3-c]azepine-7,4′-tetrahydropyran]-1-yl)propyl 2-chloro-6-fluoro-benzoate] | < 100
12 | CCc1nn(C[C@@H](C)COC(=O)c2ccc(C(C)=O)cc2)c2c1C(=O)NCC1(CCOCC1)C2 [Example 180, [(2R)-3-(3-ethyl-4-oxo-spiro[6,8-dihydro-5H-pyrazolo[4,3-c]azepine-7,4′-tetrahydropyran]-1-yl)-2-methyl-propyl] 4-acetylbenzoate] | < 100
13 | CCc1nn(C[C@@H](C)COC(=O)c2cccc(S(=O)(=O)CC)c2)c2c1C(=O)NCC1(CCOCC1)C2 [Example 226, [(2R)-3-(3-ethyl-4-oxo-spiro[6,8-dihydro-5H-pyrazolo[4,3-c]azepine-7,4′-tetrahydropyran]-1-yl)-2-methyl-propyl] 3-ethylsulfonylbenzoate] | < 100
14 | CCc1nn(CCCOC(=O)c2cccc(C)c2)c2c1C(=O)NCC1(CCOCC1)C2 [Example 15, 3-(3-ethyl-4-oxo-spiro[6,8-dihydro-5H-pyrazolo[4,3-c]azepine-7,4′-tetrahydropyran]-1-yl)propyl 3-methylbenzoate] | < 100
15 | CCc1nn(C[C@@H](C)COC(=O)c2c(F)cccc2F)c2c1C(=O)NCC1(CCOCC1)C2 [Example 176, [(2R)-3-(3-ethyl-4-oxo-spiro[6,8-dihydro-5H-pyrazolo[4,3-c]azepine-7,4′-tetrahydropyran]-1-yl)-2-methyl-propyl] 2,6-difluorobenzoate] | < 100
16 | CCc1nn(C[C@@H](C)COC(=O)c2ccc(C(N)=O)cc2)c2c1C(=O)NCC1(CCOCC1)C2 [Example 252, [(2R)-3-(3-ethyl-4-oxo-spiro[6,8-dihydro-5H-pyrazolo[4,3-c]azepine-7,4′-tetrahydropyran]-1-yl)-2-methyl-propyl] 4-carbamoylbenzoate] | < 100
17 | CCc1nn(C[C@@H](C)COC(=O)c2ccc(C(=O)NC(C)C)cc2)c2c1C(=O)NCC1(CCOCC1)C2 [Example 256, [(2R)-3-(3-ethyl-4-oxo-spiro[6,8-dihydro-5H-pyrazolo[4,3-c]azepine-7,4′-tetrahydropyran]-1-yl)-2-methyl-propyl] 4-(isopropylcarbamoyl)benzoate] | < 100
18 | CCc1nn(C[C@@H](C)COC(=O)c2ccc(C)cc2F)c2c1C(=O)NCC1(CCOCC1)C2 [Example 172, [(2R)-3-(3-ethyl-4-oxo-spiro[6,8-dihydro-5H-pyrazolo[4,3-c]azepine-7,4′-tetrahydropyran]-1-yl)-2-methyl-propyl] 2-fluoro-4-methyl-benzoate] | < 100
19 | CCc1nn(CCCOC(=O)c2c(F)cccc2OC)c2c1C(=O)NCC1(CCOCC1)C2 [Example 69, 3-(3-ethyl-4-oxo-spiro[6,8-dihydro-5H-pyrazolo[4,3-c]azepine-7,4′-tetrahydropyran]-1-yl)propyl 2-fluoro-6-methoxy-benzoate] | < 100

Same assay, conditions: read-out: PDE4 IC50 range

Row | Structure (SMILES) | IC50 [nM]
20 | CCc1nn(CC(C)(C)COC(=O)c2ccccc2Cl)c2c1C(=O)NCC1(CCOCC1)C2 [Example 292, [3-(3-ethyl-4-oxo-spiro[6,8-dihydro-5H-pyrazolo[4,3-c]azepine-7,4′-tetrahydropyran]-1-yl)-2,2-dimethyl-propyl] 2-chlorobenzoate] | < 100
21 | CCc1nn(CC(C)(C)COC(=O)c2ccc(C(F)(F)F)cc2)c2c1C(=O)NCC1(CCOCC1)C2 [Example 304, [3-(3-ethyl-4-oxo-spiro[6,8-dihydro-5H-pyrazolo[4,3-c]azepine-7,4′-tetrahydropyran]-1-yl)-2,2-dimethyl-propyl] 4-(trifluoromethyl)benzoate] | < 100
22 | CCc1nn(CC2(COC(=O)c3ccc(C)cc3)CC2)c2c1C(=O)NCC1(CCOCC1)C2 [Example 351, [1-[(3-ethyl-4-oxo-spiro[6,8-dihydro-5H-pyrazolo[4,3-c]azepine-7,4′-tetrahydropyran]-1-yl)methyl]cyclopropyl]methyl 4-methylbenzoate] | < 100
23 | CCc1nn(CC(C)(C)COC(=O)c2cccc(S(=O)(=O)CC)c2)c2c1C(=O)NCC1(CCOCC1)C2 [Example 311, [3-(3-ethyl-4-oxo-spiro[6,8-dihydro-5H-pyrazolo[4,3-c]azepine-7,4′-tetrahydropyran]-1-yl)-2,2-dimethyl-propyl] 3-ethylsulfonylbenzoate] | < 100
24 | CCc1nn(CC2(COC(=O)c3cccc(OC)c3)COC2)c2c1C(=O)NCC1(CCOCC1)C2 [Example 360, [3-[(3-ethyl-4-oxo-spiro[6,8-dihydro-5H-pyrazolo[4,3-c]azepine-7,4′-tetrahydropyran]-1-yl)methyl]oxetan-3-yl]methyl 3-methoxybenzoate] | < 100
25 | CCc1nn(CC(C)(C)COC(=O)c2cccc(C(=O)N3CCOCC3)c2)c2c1C(=O)NCC1(CCOCC1)C2 [Example 347, [3-(3-ethyl-4-oxo-spiro[6,8-dihydro-5H-pyrazolo[4,3-c]azepine-7,4′-tetrahydropyran]-1-yl)-2,2-dimethyl-propyl] 3-(morpholine-4-carbonyl)benzoate] | < 100
26 | CCc1nn(CC(C)(C)COC(=O)c2cc(F)cc(F)c2)c2c1C(=O)NCC1(CCOCC1)C2 [Example 293, [3-(3-ethyl-4-oxo-spiro[6,8-dihydro-5H-pyrazolo[4,3-c]azepine-7,4′-tetrahydropyran]-1-yl)-2,2-dimethyl-propyl] 3,5-difluorobenzoate] | < 100
27 | CCc1nn(C[C@H](C)COC(=O)c2ccc(F)cc2)c2c1C(=O)NCC1(CCOCC1)C2 [Example 277, [(2S)-3-(3-ethyl-4-oxo-spiro[6,8-dihydro-5H-pyrazolo[4,3-c]azepine-7,4′-tetrahydropyran]-1-yl)-2-methyl-propyl] 4-fluorobenzoate] | < 100
28 | CCc1nn(CCCCOC(=O)c2ccc(C(C)=O)cc2)c2c1C(=O)NCC1(CCOCC1)C2 [Example 368, 4-(3-ethyl-4-oxo-spiro[6,8-dihydro-5H-pyrazolo[4,3-c]azepine-7,4′-tetrahydropyran]-1-yl)butyl 4-acetylbenzoate] | 100 to 500
29 | CCc1nn(CCCCOC(=O)c2ccc(S(=O)(=O)N(C)C)cc2)c2c1C(=O)NCC1(CCOCC1)C2 [Example 375, 4-(3-ethyl-4-oxo-spiro[6,8-dihydro-5H-pyrazolo[4,3-c]azepine-7,4′-tetrahydropyran]-1-yl)butyl 4-(dimethylsulfamoyl)benzoate] | 100 to 500
